The source of these data is patent US20220175682A1, “Siremadlin Succinate” (Novartis AG, priority 2019, published 2022).

Holding throughout (assay type): physicochemical
The nature of series [1]: Particle size distribution by laser light diffraction (LLD). From the text:
Values are given in micrometer, measurements done by laser light diffraction (LLD).

Series [2] in a line: FT4 powder rheometer powder characterization (8-parameter model). Details: MPS-15: unit not given here. To be noted: HDM201-BBA batches, listed as C3. How it is done:
A standard FT4 powder rheometer offers at least 6 powder characterization methods (per measurement cylinder diameter). Those selected for analysis are
25 mm_1C_Split_Rep+VFR_R01;
25 mm_Compressibility_1-15 kPa;
25 mm_Wall Friction_30 kPa.
Each characterization method produces several kind of response parameters (default or manually selectable). A set of complete powder characterizations (at least 22 response parameters per row) were measured for more than 350 different powders and more than 60 different compounds using a standard FT4 powder rheometer and compiled in a database. The various parameters were correlated to the respective filling behavior in order to determine a set of parameters and parameter ranges which is capable of distinguishing and predicting filling behavior of powders.
sBFE: Specific Basic Flow Energy (mJ/g): obtained from BFE (obtained from standard FT4 test platform) divided by the split mass of the sample.
SI: Stability Index, standard variable, dimensionless.
SE: Specific Energy (mJ/g), standard variable
MPS @ 15 kPa: major Principal Stress, standard variable
FF @ 15 kPa: Flow function (dimensionless), from shear cell, standard variable
CBD @ 15 kPa: Consolidated Bulk Density (g/mL), standard variable (from shear cell)
CPS: Compressibility (%), standard variable
WFA: Wall Friction Angle (degree°), standard variable.

Series [3] is described as follows: Crystal/particle shape, size and bulk density of reference API powders. The text has this:
NBU928 is a fumarate salt with a challenging crystallization process. The resulting particles typically have an elongated aspect ratio, crystals are lath shaped up to 400 μm long with strong agglomeration tendency. Such kind of crystal shape give a resulting powder bulk which is not directly processable in any capsule filler equipment. Therefore the API powder was subjected to a Particle Engineering treatment to selectively grow the shot side of the crystal then it was milled down through a pin mill equipment obtaining a quite regular fragmentation, leading to smaller particles with more steady aspect ratio, free of agglomeration, with an average diameter (X50) of about 25 μm.
CDZ173 is a mono-phosphate salt compound. It is characterized by needle shaped crystals with aspect ratio >10, agglomerated/fused rod-like crystals, very low bulk density (always <0.2 g/mL, very often <0.12 g/mL). It is here reported in two different variants (milled and un-milled).

Series [4] in a line: Behaviour of co-crystal in aqueous media.
The mark [5] stands for this setting: laser light diffraction, pin-milled HDM201-BBA batches, listed as C3.

In series [1] (setting [5]), `COc1ncc(-c2nc3c(n2C(C)C)[C@H](c2ccc(Cl)cc2)N(c2cc(Cl)cn(C)c2=O)C3=O)c(OC)n1.O=C(O)CCC(=O)O` [Batch C3] displayed an X10 of 3 micrometer, an X50 of 19 micrometer and an X90 of 58 micrometer. Moreover, in series [2] (FT4, Group 1), the SI is given as 1.03 and the sBFE came out at 8 mJ/g. In series [2] (FT4, Group 2), this compound returned a CBD-15 of 0.62 g/mL, an FF-15 of 3.7 and an MPS-15 of 29. The CPS in series [2] (FT4, Group 3) was 36%.
On to `CCC(=O)N1CC[C@H](Nc2ncnc3c2CN(c2cnc(OC)c(C(F)(F)F)c2)CC3)C1.O=P(O)(O)O` [CDZ173], for which the bulk density is below 0.2 g/mL in series [3] (always) and below 0.12 g/mL in series [3] (very often). In series [3] (needle shaped crystals), the “aspect ratio of crystals” value was above 10.
As to `COc1ncc(-c2nc3c(n2C(C)C)[C@H](c2ccc(Cl)cc2)N(c2cc(Cl)cn(C)c2=O)C3=O)c(OC)n1` [HDM201-BBA, (6S)-5-(5-Chloro-1-methyl-2-oxo-1,2-dihydropyridin-3-yl)-6-(4-chlorophenyl)-2-(2,4-dimethoxypyrimidin-5-yl)-1-(propan-2-yl)-5,6-dihydropyrrolo[3,4-d]imidazol-4(1H)-one], the “particle size range X90(LLD) found suitable for direct encapsulation” value in series [1] is recorded as 10-200 micrometer. In addition, the “stability of co-crystal in aqueous media” value in series [4] is “can disproportionate into the free form in aqueous media”.
